Source: PMC8623047, “Novel Antioxidants and α-Glycosidase and Protein Tyrosine Phosphatase 1B Inhibitors from an Endophytic Fungus Penicillium brefeldianum F4a” (Journal of Fungi, 2021)

Experiments:
[1] = DPPH radical scavenging assay; settings: mean ± SD, n = 3; 30 min, 517 nm
Protocol: The DPPH free radicals scavenging assay was tested according to the previously reported methods. First, 100 μL of sample at different concentrations in ethanol (the blank control used 100 μL of ethanol instead of the sample) was added to 96 wells, followed by 100 μL of 0.15 mM DPPH. […] L-Ascorbic acid was used as the positive control.

PTP1B = molecular target: T1, PTP1B (Homo sapiens, UniProt P18031); assay: PTP1B inhibitory assay (p-NPP substrate); type: biochemical; settings: mean ± SD, n = 3; sample concentration achieving 50% of activity
T1 sequence (P18031 1-435): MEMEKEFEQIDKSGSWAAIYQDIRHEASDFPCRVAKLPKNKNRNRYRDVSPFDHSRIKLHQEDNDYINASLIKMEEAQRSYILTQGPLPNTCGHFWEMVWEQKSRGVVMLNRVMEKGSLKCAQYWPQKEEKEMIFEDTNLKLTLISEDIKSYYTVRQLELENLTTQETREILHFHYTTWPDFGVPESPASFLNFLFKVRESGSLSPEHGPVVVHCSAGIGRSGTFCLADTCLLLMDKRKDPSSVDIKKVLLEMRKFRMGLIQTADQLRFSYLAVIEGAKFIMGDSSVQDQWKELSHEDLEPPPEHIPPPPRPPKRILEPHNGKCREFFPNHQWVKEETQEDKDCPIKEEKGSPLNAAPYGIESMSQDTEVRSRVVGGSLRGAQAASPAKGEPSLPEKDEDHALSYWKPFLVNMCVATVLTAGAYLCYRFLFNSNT
Protocol: The PTP1B inhibitory activity was established according to the previously reported methods. The reagent para-nitrophenyl phosphate (p-NPP) was used as a substrate for PTP1B. Then, 81 μL enzyme in buffer (pH 7.5), including EDTA (1 mM), Tris-HCl (25 mM), dithiothreitol (DTT) (1 mM), β-mercaptoethanol (2 mM), and 10 μL of sample at various concentrations in DMSO (the blank control used 10 μL of DMSO instead of the sample), was incubated in 96-well plates at 37 °C for 10 min. Then, 4 μL p-NPP (10 mM) in buffer was added and incubated at 37 °C for 30 min. Next, 5 μL of 2 M NaOH solution was added to terminate the reaction. Then, the absorbance was determined at 405 nm wavelength.

[2] = ABTS radical scavenging assay; settings: mean ± SD, n = 3; 6 min, 734 nm
Protocol: The ABTS free radical scavenging assay was tested according to the previously reported methods. […] The mixture was incubated in darkness at room temperature for 12 h before use. […] Then, 100 μL of the sample at various concentrations in ethanol (the blank control used 100 μL of ethanol instead of the sample) was added to 3.0 mL of diluted ABTS^•+ solution and mixed vigorously. […] L-Ascorbic acid was used as the positive control.

[3] = previous studies; cited from earlier work

| SMILES | EC50 [1] [µM] | EC50 (PTP1B) [µM] | EC50 [2] [µM] | DPPH• scavenging activity IC50 [3] [µg/mL] |
| --- | --- | --- | --- | --- |
| COc1cc(O)cc(C)c1Cc1oc(C[C@@H](C)O)cc1C(=O)O [Compound 1, peniorcinol A] | > 100 | > 50 | 21.9 ± 1.06 |  |
| COc1cc(O)cc(C)c1Cc1oc(C)cc1C(=O)O [Compound 2, peniorcinol B] | > 100 | > 50 | 28.2 ± 2.87 |  |
| C=C1C=CC(=O)[C@]1(CO)Cc1c(C)cc(O)cc1OC [Compound 3, peniorcinol C] | > 100 | > 50 | 32.7 ± 3.86 |  |
| C[C@]1(O)Cc2oc3c(C(=O)O)c(O)c(O)cc3c(=O)c2CO1 [Compound 4, penialidin A] | > 100 | > 50 | 14.5 ± 0.46 | 156.38 |
| C[C@]1(O)Cc2oc3cc(O)c(O)cc3c(=O)c2CO1 [Compound 5, penialidin F] | 28.4 ± 3.16 | > 50 | 7.61 ± 0.46 |  |
| CC1=Cc2oc3cc(O)c(O)cc3c(=O)c2CO1 [Compound 6, myxotrichin C] | 30.1 ± 2.83 | > 50 | 15 ± 2.57 |  |
| Cc1cc2nc3c(=O)[nH]c(=O)nc-3n(C[C@H](O)[C@H](O)[C@H](O)CO)c2cc1C [Compound 7, riboflavin] |  | 8.87 ± 0.91 |  |  |
| O=C(O)Cc1c[nH]c2ccccc12 [Compound 8, indole-3-acetic acid] |  | 11.7 ± 1.03 |  |  |
| COc1cc(O)cc(C)c1CC(=O)O [Compound 9, 2-(4-hydroxy-2-methoxy-6-methylphenyl) acetic acid] | > 100 | > 50 | 30 ± 4.17 |  |
| O=C1O[C@H]([C@@H](O)CO)C(O)=C1O [L-Ascorbic acid, reference compound] | 6.12 ± 0.17 |  | 18.8 ± 3.39 |  |
